From patent US8455495B2, “Pyridazino-pyridinone compounds and methods of use” (Amgen Inc., priority 2008, dated 2013)
Where two headings read alike, the source gives them in different places.

What was measured:
recombinant human p38α = recombinant human p38α (Homo sapiens, UniProt Q16539); experiment: Purified and activated recombinant human p38α HTRF assay; assay type: biochemical; settings: 1 nM p38α, 50 μM ATP, GST-ATF2 substrate, read-out: p38a IC50
Experimental: Purified and Activated Recombinant Human p38α Assay Kinase Reaction Buffer: […] HTRF Detection Buffer: […] Serial Dilution of Compounds: […] Columns 6 and 12 (HI controls and LO controls respectively) in the drug plate were reserved as controls and contained only DMSO. Kinase Reaction: […] See table below for actual concentrations. In the absence of substrate, the background was measured as LO control. […] Assay Reagent Concentrations: […] HTRF Detection: […] After 60 minutes incubation at room temperature, the assay plate was read in a Discovery Plate Reader. The wells were excited with coherent 320 nm light and the ratio of delayed ([…] post excitation) emissions at […] (native europium fluorescence) and 665 nm (europium fluorescence transferred to allophycocyanin-an index of substrate phosphorylation) was determined (Park et al, 1999). Data Analysis: […] Data (consisting of POC and inhibitor concentration in μM) was fitted to a 4-parameter equation ([…]))), where A is the minimum y (POC) value, B is the maximum y (POC), C is the x (compound concentration) at the point of inflection and D is the slope factor, using a Levenburg-Marquardt non-linear regression algorithm. The inhibition constant (Ki) of the inhibitor was estimated from the IC50 (compound concentration at the point of inflection C) using the Cheng-Prussof equation: […] All results were expressed as the mean±the standard error of the mean. Data acquisition and non-linear regression algorithms were performed using Activity Base v5.2 and XL-fit software v4.1 respectively. All data was archived using Activity Base v5.2 software.

[1] = tested on: production of IL-1β, IL-6, and TNF-α by PBMC activated with LPS; experiment: Lipopolysaccharide-activated PBMC cytokine production assay; assay type: cell-based; settings: Homo sapiens, read-out: IC50 in PBMC cytokine production assay
Experimental: Lipopolysaccharide-Activated Pbmc Cytokine Production Assay
Test compounds were evaluated in vitro for the ability to inhibit the production of IL-1β, IL-6, and TNF-α by PBMC activated with bacterial lipopolysaccharide (LPS). Fresh leukocytes were obtained from a local blood bank, and peripheral blood mononuclear cells (PBMCs) were isolated by density gradient centrifugation on Ficol-Paque Plus (Pharmacia).
Preparation of Test Compound Stock Solutions
All reagents were prepared in RPMI 1640+10% v/v human AB serum+1× Pens/Strep/Glu (assay medium). Test compounds were dissolved in 100% DMSO and serially diluted in 96-well polypropylene round bottom micro titer plates (drug plate). Serial dilutions were then diluted 1:250 into assay medium to a 4× working concentration. Compound serial dilutions were half-log, 10 point titrations with a final starting concentration of 1 μM.
Treatment of Cells with Test Compounds and Activation with Lipopolysaccharide
LPS was prepared to a 4× concentration in assay medium. 100 μl of PBMC (1×10^6 cells/ml) were plated in a 96-well polystyrene flat bottom micro titer tissue culture plate and incubated with 50 μl of 4× compound serial dilution for 1 hour at 37° C., 5% CO2 in a tissue culture incubator. 50 μl 4×LPS or control was added and the plates were incubated at 37° C., 5% CO2 in a tissue culture incubator for 18 hours. The final DMSO concentration was 0.1%. The total volume was 200 μL. The final LPS concentration was 100 ng/mL. After 18 hours culture supernatants were removed and IL-1β, IL-6, and TNF-α presence in the supernatants was quantified using MSD ECL based technology.
20 μL of culture supernatant were added to MSD plates, and incubated for one hour at room temperature. 20 μL of detection antibody diluted in antibody diluent (1 μg/mL), and 110 μL of 2× Read Buffer P was added, and incubated for one hour at RT. Electrochemiluminescence was measured using the SECTOR HTS Imager (MSD, Gaithersburg, Md.).
Compound IC50 values were calculated as follows: The proportion of cytokine production in the presence of compound compared to the cytokine production in the presence of the DMSO vehicle alone (Hi control) was calculated using the formula: Percent Control (POC)=(compound−average Lo)/(average Hi−average Lo)*100.

[2] = tested on: LPS-induced TNF-α production; experiment: Inhibition of LPS-induced TNF-α production in rats; assay type: in vivo; settings: Rattus norvegicus, read-out: ED50, inhibition of LPS-induced TNF-α production
Experimental: Inhibition of LPS-Induced TNF-α Production Rats
LPS was diluted in PBS (100 μg per rat). Rats (n=6) were pretreated with vehicle or compound (0.03, 0.1, 0.3 and 1.0 mg/kg, PO) 60 minutes prior to the injection of LPS (100 μg per rat/IV, tail vein). Blood was harvested via decapitation 90 minutes following the administration of LPS. Blood was centrifuged at 12,000 rpm for 12 minutes to obtain plasma. Plasma samples were stored at −80 C. TNF-α levels were determined by ELISA for treatment groups that received LPS. Rat TNF-α levels were analyzed using rat TNF-α CytoSet kit from Biosource International. ELISA was completed according to the manufacturer's instructions. The concentration of TNF-α was interpolated from absorbance using the standard curve generated. For each individual sample, the TNF value from the dilution series that fell in the most linear portion of the standard curve was chosen and used for data analysis. The limit of quantitation of the ELISA was 1,000 pg/mL.

[3] = tested on: collagen-induced arthritis; experiment: Collagen-induced arthritis (CIA) model in rats; assay type: in vivo; settings: Rattus norvegicus, 168 h, read-out: ED50 in rat CIA model
Experimental: Collagen-induced Arthritis (CIA) Model in Rats
Porcine type II collagen (10 mg) was dissolved in 0.1N acetic acid (5 mL) two days prior to use on a rotating plate in the refrigerator. Subsequently, collagen was emulsified 1:1 with Freund's incomplete adjuvant using an emulsification needle and glass syringes yielding a final concentration of 1 mg/mL.
Disease was induced in each animal by intradermal injection of emulsified collagen in IFA at 10 different sites (100 μL per site) over the back. The clinical onset of arthritis varied between days 10 to 12 as indicated by hind paw swelling and ambulatory difficulties. At onset (defined as Day 0), rats were randomized to treatment groups and therapy was initiated with drug or vehicle control as noted in table above. Rats were treated for 7 days and were sacrificed on Day 8.

[4] = tested on: TNF-α production by LPS-activated THP1 cells; experiment: Lipopolysaccharide-activated THP1 cell TNF production assay; assay type: cell-based; settings: Homo sapiens, read-out: IC50 in THP-1 cellular TNF production assay
Experimental: Lipopolysaccharide-Activated THP1 Cell TNF Production Assay
THP1 cells were resuspended in fresh THP1 media (RPMI 1640, 10% heat-inactivated FBS, 1×PGS, 1×NEAA, plus 30 μM βME) at a concentration of 1.5×10^6 cells per mL. One hundred microliters of cells per well were plated in a polystyrene 96-well tissue culture plate. 1.5 micrograms per mL of bacterial LPS was prepared in THP1 media and transferred to the first 11 columns of a 96-well polypropylene plate. Column 12 contained only THP1 media for the LO control. Compounds were dissolved in 100% DMSO and serially diluted 3 fold in a polypropylene 96-well microtiter plate (drug plate). Columns 6 and 12 were reserved as controls (HI controls and LO controls respectively) and contained only DMSO. 10 μL of LPS followed by one microliter of inhibitor compound from the drug plate was transferred to the cell plate. The treated cells were induced to synthesize and secrete TNF-α in a 37° C. humidified incubator with 5% CO2 for 3 hours. Fifty microliters of conditioned media was transferred to a 96-well MULTI-ARRAY™ 96-well small spot plate—custom coated with MAB610 containing 100 μL of 2× Read Buffer P supplemented with 0.34 nM AF210NA polyclonal Ab labeled with ruthenium (MSD—Sulfo-TAG™—NHS ester). After an overnight incubation at room temperature with shaking, the reaction was read on the Sector Imager™ 6000. […] The amount of secreted TNF-α in the presence of test compounds compared with that in the presence of DMSO vehicle alone (HI control) was calculated using the formula: % control (POC)=(cpd−average LO)/(average HI−averageLO)*100. Data (consisting of POC and inhibitor concentration in μM) was fitted to a 4-parameter equation (y=A+((B−A)/(1+((x/C)^D))), where A is the minimum y (POC) value, B is the maximum y (POC), C is the x (cpd concentration) at the point of inflection and D is the slope factor) using a Levenburg-Marquardt non-linear regression algorithm.

[5] = tested on: TNF-α induced IL-8 in 50% human whole blood; experiment: Inhibition of TNF-α induced IL-8 in 50% human whole blood; assay type: cell-based; settings: TNF-α (1 nM) induced IL-8, 50% human whole blood, 16-18 h, read-out: WB TNF/IL8 IC50
Experimental: Inhibition of TNF-α Induced IL-8 in 50% Human Whole Blood
Test compounds were evaluated in vitro for the ability to inhibit the production of secreted IL-8 by whole blood activated with TNF-α. Fresh human whole blood was obtained from healthy, non-medicated volunteers in sodium heparin tubes.
Compound Dilution—Assay Procedure
Test compounds are serially diluted 1:3 in DMSO and then diluted 1:250 into R10 (RPMI 1640, 10% human serum AB, 1× pen/strep/glutamine) to the 4× working concentration to be used in the assay. 100 ul heparinized whole blood is plated into wells of 96 well flat bottom plates. 50 ul of either 4× compound or DMSO control (Final DMSO concentration is 0.1%) are added to the appropriate wells. Plates are incubated for 1 hour at 37 degrees Celsius. 50 ul of 4×TNF-α (4 nM TNF-α, for a final concentration of 1 nM) or control (media alone) is added to the appropriate wells (Total volume=200 ul). Plates are incubated overnight (16-18 hours). 100 ul of supernatant is collected and stored in 96-well round bottom polypropylene plates at −80 degrees Celsius or assayed immediately for IL-8.
Cytokines are measured on antibody (Ab) sandwich ECL based 96-well detection plates. 20 ul of supernatant are added to plate and plate is sealed and shaken at RT for 1 hour. 130 ul of detection Ab cocktail is added and plates are sealed and shaken for 1 hour in the dark at RT. Plates are read on MSD Sector HTS instrument. Data are analyzed and IC50 values generated using Activity Base and X1-fit programs.

[6] = THP-1, THP1 cells, LPS, 3 hours

Sequence of recombinant human p38α (Q16539 whole entry): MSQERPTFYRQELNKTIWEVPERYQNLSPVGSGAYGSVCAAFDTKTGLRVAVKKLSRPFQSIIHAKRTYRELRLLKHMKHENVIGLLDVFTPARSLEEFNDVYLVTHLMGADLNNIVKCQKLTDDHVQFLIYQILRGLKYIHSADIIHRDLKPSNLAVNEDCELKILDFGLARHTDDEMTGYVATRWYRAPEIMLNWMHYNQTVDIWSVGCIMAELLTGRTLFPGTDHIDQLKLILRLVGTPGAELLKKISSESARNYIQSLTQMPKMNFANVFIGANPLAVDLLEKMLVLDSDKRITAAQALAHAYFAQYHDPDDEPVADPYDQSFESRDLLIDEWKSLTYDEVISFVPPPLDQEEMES

| IC50 [4, 6] [nM] | IC50 [5] [nM] | SMILES | IC50 (recombinant human p38α) [nM] | IC50 ([1]; LPS 100 ng/mL, 18 hours) [nM] | ED50 ([2]; rats, compound PO 60 minutes prior to LPS IV, plasma TNF-α 90 minutes after LPS) [mg/kg] | ED50 ([3]; rats, treated for 7 days from onset of arthritis) [mg/kg] | IC50 ([1]; 18 h) [nM] | ED50 [2] [mg/kg] | ED50 [3] [mg/kg] | IC50 ([4]; THP-1, 3 h) [nM] |
| --- | --- | --- | --- | --- | --- | --- | --- | --- | --- | --- |
| ≤ 1000 | – | Cc1c(F)cc(C(=O)NC2CC2)cc1-c1cc2cnnc(-c3ccccc3Cl)c2n(C)c1=O [Example 14, 3-(8-(2-chlorophenyl)-1-methyl-2-oxo-1,2-dihydropyrido[2,3-d]pyridazin-3-yl)-N-cyclopropyl-5-fluoro-4-methylbenzamide] | 2.4 | ≤ 1000 | 0.02 | 0.03 | – | – | – | – |
| ≤ 1000 | 2.2 | Cc1ccc(C(=O)NC2CC2)cc1-c1cc2cnnc(-c3cc(F)ccc3Cl)c2n(C)c1=O [Example 18, 3-(8-(2-chloro-5-fluorophenyl)-1-methyl-2-oxo-1,2-dihydropyrido[2,3-d]pyridazin-3-yl)-N-cyclopropyl-4-methylbenzamide] | 1.7 | ≤ 1000 | – | – | – | – | – | – |
| – | – | Cc1ccc(C(=O)NC2CC2)cc1-c1cc2cnnc(-c3ccc(F)cc3F)c2n(C)c1=O [Example 1, N-cyclopropyl-3-(8-(2,4-difluorophenyl)-1-methyl-2-oxo-1,2-dihydropyrido[3,2-d]pyridazin-3-yl)-4-methylbenzamide] | 2.3 | – | – | – | ≤ 1000 | 0.06 | 0.03 | ≤ 1000 |
| – | – | Cc1c(F)cc(C(=O)NC2CC2)cc1-c1cc2cnnc(-c3ccc(F)cc3F)c2n(C)c1=O [Example 3, N-cyclopropyl-3-(8-(2,4-difluorophenyl)-1-methyl-2-oxo-1,2-dihydropyrido[3,2-d]pyridazin-3-yl)-5-fluoro-4-methylbenzamide] | 1.7 | – | – | – | ≤ 1000 | 0.04 | – | ≤ 1000 |
